Measurements from publication doi:10.1101/2025.10.17.681057v1 (biorxiv, 2025).

Columns and labels:
[1] = biological target: T1, Fatty Acid Amide Hydrolase (FAAH) (Homo sapiens, UniProt O00519); test: fluorescence assay of AMC release from anandamide-AMC, 4-parameter logistic fit; type: biochemical
T1 sequence (O00519 1-579): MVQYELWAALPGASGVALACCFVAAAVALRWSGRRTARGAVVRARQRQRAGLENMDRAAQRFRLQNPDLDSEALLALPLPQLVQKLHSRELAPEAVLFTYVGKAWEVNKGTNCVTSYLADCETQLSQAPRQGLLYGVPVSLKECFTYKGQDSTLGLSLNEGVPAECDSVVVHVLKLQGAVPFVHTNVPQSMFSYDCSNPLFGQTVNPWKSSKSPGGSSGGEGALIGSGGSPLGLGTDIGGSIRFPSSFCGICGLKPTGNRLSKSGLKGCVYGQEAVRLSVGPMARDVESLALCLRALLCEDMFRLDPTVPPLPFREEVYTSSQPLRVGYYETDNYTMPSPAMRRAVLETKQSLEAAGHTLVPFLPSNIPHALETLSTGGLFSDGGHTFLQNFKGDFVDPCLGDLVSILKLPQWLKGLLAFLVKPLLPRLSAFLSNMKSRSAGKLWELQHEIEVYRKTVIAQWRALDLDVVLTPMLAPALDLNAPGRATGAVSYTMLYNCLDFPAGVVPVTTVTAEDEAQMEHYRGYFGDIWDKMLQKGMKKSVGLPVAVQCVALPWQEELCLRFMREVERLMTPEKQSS

CYP3A4 = CYP3A4 (Homo sapiens, UniProt P08684); test: P450 spectral binding titration
Sequence of CYP3A4 (P08684 2-503): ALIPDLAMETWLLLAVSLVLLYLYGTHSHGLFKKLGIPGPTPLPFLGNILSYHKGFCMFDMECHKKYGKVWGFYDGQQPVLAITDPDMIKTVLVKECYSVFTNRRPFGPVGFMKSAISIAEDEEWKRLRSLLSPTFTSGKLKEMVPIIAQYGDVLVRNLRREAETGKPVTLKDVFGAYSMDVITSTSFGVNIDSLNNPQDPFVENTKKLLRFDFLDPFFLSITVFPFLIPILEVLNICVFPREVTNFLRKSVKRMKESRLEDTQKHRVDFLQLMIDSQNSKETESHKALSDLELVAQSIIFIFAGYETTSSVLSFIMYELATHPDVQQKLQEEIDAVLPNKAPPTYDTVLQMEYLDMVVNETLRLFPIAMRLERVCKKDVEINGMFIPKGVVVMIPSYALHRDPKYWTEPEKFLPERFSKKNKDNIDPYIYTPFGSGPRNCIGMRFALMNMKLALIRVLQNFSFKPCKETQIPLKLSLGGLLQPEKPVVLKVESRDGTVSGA

human CYP2J2 = biological target: T2, human CYP2J2 (Homo sapiens, UniProt P51589); test: P450 spectral binding titration
T2 sequence (P51589 1-502): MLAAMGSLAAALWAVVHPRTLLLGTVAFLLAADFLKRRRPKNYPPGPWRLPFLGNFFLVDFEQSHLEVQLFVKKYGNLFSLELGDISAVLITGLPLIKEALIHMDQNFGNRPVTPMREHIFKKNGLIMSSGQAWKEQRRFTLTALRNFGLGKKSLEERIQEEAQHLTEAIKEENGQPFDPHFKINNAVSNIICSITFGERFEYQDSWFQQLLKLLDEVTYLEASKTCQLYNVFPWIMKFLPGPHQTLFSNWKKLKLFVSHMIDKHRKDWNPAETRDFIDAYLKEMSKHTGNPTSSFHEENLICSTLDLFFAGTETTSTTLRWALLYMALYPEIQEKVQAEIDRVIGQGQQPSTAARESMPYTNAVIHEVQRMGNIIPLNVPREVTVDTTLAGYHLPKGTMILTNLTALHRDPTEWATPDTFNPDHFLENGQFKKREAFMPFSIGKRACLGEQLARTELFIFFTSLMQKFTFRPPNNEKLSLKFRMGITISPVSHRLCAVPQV

| Kd (CYP3A4) | Compound | IC50 [1] | Kd (human CYP2J2) |
| --- | --- | --- | --- |
| 20.3 ± 6.13 µM | CC/C=C\C/C=C\C/C=C\C/C=C\C/C=C\C/C=C\CCC(=O)NCC(=O)O [DHA-Gly] | 35.3 ± 1.82 µM | 2.47 ± 0.26 µM |
| – | CCCCC/C=C\C/C=C\C/C=C\C/C=C\CCCC(=O)NCC(=O)O [NA-Gly] | 14.2 ± 1.07 µM | 3.3 ± 0.31 µM |
